What was measured:
EL-4 T lymphoma cells = experiment: Trypan blue exclusion assay, cell viability; type: cell-based, mouse; conditions: for Cell viability (%): EL-4 cells
Experimental: First, in an incubator containing 5 vol % of CO2 at 37° C., EL-4 mouse T lymphoma cells (commercially available from ATCC, Manassas, Va., America) were cultured in the DMEM culture medium (containing 10 wt % of thermally deactivated FBS), and were sub-cultured at a ratio of 1:3.
Then, at a density of 5×10^5 counts/ml, the T lymphoma cells were bred in a six-well culture dish, and at the 0th minute, brazilin of different concentrations (0.3, 1, 3, 10, or 30 micromole (μM)) was added into the cell culture solution at an amount of 1 μl/ml-cell culture solution. Then, the cells were put into the incubator to be cultured therein. […] During the process of cell culture, the trypan blue exclusion assay was employed to observe effect of the brazilin on the cell viability, results of which are shown in Table 1 and FIG. 1.

IL-4 mRNA = experiment: Real-time PCR of IL-4 mRNA in EL-4 T lymphoma cells; type: cell-based, mouse; conditions: for Expression level of IL-4 mRNA: PMA + cAMP stimulated EL-4 cells, corrected to HPRT
Experimental: (§1) Then, at a density of 5×10^5 counts/ml, the T lymphoma cells were bred in a six-well culture dish, and at the 0th minute, brazilin of different concentrations (0.3, 1, 3, 10, or 30 micromole (μM)) was added into the cell culture solution at an amount of 1 μl/ml-cell culture solution. Then, the cells were put into the incubator to be cultured therein. 30 minutes later, at an amount of 1 μl/ml-cell culture solution, 5 μg/ml PMA and cAMP at a 250 mmol concentration were added to the cell culture solution to stimulate the expression of IL-4 and IL-5 of the T lymphoma cells. During the process of cell culture, the trypan blue exclusion assay was employed to observe effect of the brazilin on the cell viability, results of which are shown in Table 1 and FIG. 1.
(§2) Expression of mRNA of IL-4, IL-5, GATA-3, c-maf, and T-bet were analyzed in a quantitative way through real-time polymerase chain reaction (PCR) by extracting RNA in the cells obtained in Experiment A (using an RNA purifying kit), converting the RNA into cDNA through reverse transcription, and using an ABI PRISM 7700 sequence detector (Applied Biosystems, Foster City, Calif., America) to analyze the gene expression of mRNA. The PCR was carried out under the following conditions: 50° C., 2 minutes; 95° C., 10 minutes; 60° C., 1 minute; then repeating this cycle forty times. A threshold cycle (or referred to as Ct) was used to represent the expression level of each gene, and an expression level of hypoxanthine-guanine phosphoribosy transferase (HPRT) genes of the endogenous control group was used for correction of the expression level of mRNA.

GATA-3 mRNA = experiment: Real-time PCR of GATA-3 mRNA in EL-4 T lymphoma cells; type: cell-based, mouse; conditions: for Expression level of GATA-3 mRNA: PMA + cAMP stimulated EL-4 cells, corrected to HPRT
Experimental: as §1, §2

T-bet mRNA = experiment: Real-time PCR of T-bet mRNA in EL-4 T lymphoma cells; type: cell-based, mouse; conditions: for Expression level of T-bet mRNA: PMA + cAMP stimulated EL-4 cells, corrected to HPRT
Experimental: as §1, §2

IL-4 = experiment: ELISA of IL-4 in bronochial alveolar lavage fluid, mice with asthma (OVA); type: in vivo, BALB/c mice; conditions: for IL-4 concentration (pico-gram/ml): i.p. or i.t., OVA-sensitized BALB/c mice
Experimental: (§3) In Example 2, mice with asthma were used to conduct in vivo experiments, and ovalbumin (OVA) was used as an allergen.
(§4) The mice were sensitized (or challenged) according to the steps shown in FIG. 9 (see Lee et al., Lentiviral-mediated GATA-3 RNAi decreases allergic airway inflammation and hyperresponsiveness. Molecular Therapy, 2008; 16:60-65, which is incorporated herein in its entirety by reference). First, 50 μg OVA (using 2 mg alumina (Alum, Alumlmuject, Pierce Chemical, Rockford, Ill., USA) as an adjuvant) was injected into six to eight-week-old BALB/c female mice (from National Laboratory Animal Center, Taiwan) by intraperitoneal injection (i.p.). At 0th, 14th, and 28th day, the mice were injected with OVA at the same dosage. Before the administration of OVA at the forty-first and the forty-second days, different dosages of brazilin (high dose: 430 μg/mice; low dose: 43 μg/mice) were administrated to the mice by intraperitoneal injection (i.p.) or intratracheal instillation (i.t.). During the fortieth to the forty-second days, 100 μg OVA was dissolved in 40 μl PBS, and was administrated to the mice by intranasal instillation (i.n.) (once everyday, for three days). At the forty-third day, airway hyperresponsiveness of the mice was observed. […]
(§5) In Experiment D, after 24 hours from the last administration of OVA into the noses of the mice, the mice were sacrificed, and the blood was collected from the orbital cavities of the mice. […] Cells obtained after the centrifugation were re-suspended in a 1 ml HBSS buffer solution, and the total cell number was counted with a hemocytometer.
(§6) The bronochial alveolar lavage fluid collected in Experiment E was centrifuged at 4° C. and with a revolution speed of 400 g for 10 minutes. After the supernatant was collected, the expression of eotaxin, IL-4, IL-5, and IFN-γ was analyzed with an ELISA kit (R&D Systems, Inc., USA). […]

IL-5 = experiment: ELISA of IL-5 in bronochial alveolar lavage fluid, mice with asthma (OVA); type: in vivo, BALB/c mice; conditions: for IL-5 concentration (pico-gram/ml): i.p. or i.t., OVA-sensitized BALB/c mice
Experimental: as §3, §4, §5, §6

IFN-γ = experiment: ELISA of IFN-γ in bronochial alveolar lavage fluid, mice with asthma (OVA); type: in vivo, BALB/c mice; conditions: for IFN-γ concentration (pico-gram/ml): i.p. or i.t., OVA-sensitized BALB/c mice
Experimental: as §3, §4, §5, §6

For `Oc1ccc2c(c1)OC[C@]1(O)Cc3cc(O)c(O)cc3[C@H]21` [brazilin], the “effect on the growth of EL-4 T lymphoma cells” value (EL-4 T lymphoma cells; 0.3-30 μM, result in words) was “no effect”, the cytotoxicity (EL-4 T lymphoma cells; EL-4 T lymphoma cells, 0.3-30 μM, result in words) was “no cytotoxicity” and the “Cell viability (%)” value (EL-4 T lymphoma cells; brazilin 0.3 μM, no PMA + cAMP) was 102.8 ± 6.895%. For the same compound, the “Cell viability (%)” value (EL-4 T lymphoma cells; brazilin 0.3 μM, with PMA + cAMP) was 115.9 ± 6.968%, the “Cell viability (%)” value (EL-4 T lymphoma cells; brazilin 1 μM, no PMA + cAMP) was 106.5 ± 1.190% and the “Cell viability (%)” value (EL-4 T lymphoma cells; brazilin 1 μM, with PMA + cAMP) was 107.4 ± 3.829%. The “Cell viability (%)” value (EL-4 T lymphoma cells; brazilin 3 μM, no PMA + cAMP) was 101.5 ± 4.226%, the “Cell viability (%)” value (EL-4 T lymphoma cells; brazilin 3 μM, with PMA + cAMP) was 109.0 ± 3.764% and the “Cell viability (%)” value (EL-4 T lymphoma cells; brazilin 10 μM, no PMA + cAMP) was 111.5 ± 5.126%. For the same compound, the “Cell viability (%)” value (EL-4 T lymphoma cells; brazilin 10 μM, with PMA + cAMP) was 100.8 ± 3.257%, the “Cell viability (%)” value (EL-4 T lymphoma cells; brazilin 30 μM, no PMA + cAMP) was 98.17 ± 8.439% and the “Cell viability (%)” value (EL-4 T lymphoma cells; brazilin 30 μM, with PMA + cAMP) was 104.7 ± 2.495%. The “expression of mRNA of IL-4” value (IL-4 mRNA; EL-4 cells, result in words) was “inhibited”, the “Expression level of IL-4 mRNA” value (IL-4 mRNA; brazilin 0.3 μM) was 2.228 ± 0.4786 and the “Expression level of IL-4 mRNA” value (IL-4 mRNA; brazilin 1 μM) was 2.028 ± 0.1794. The “Expression level of IL-4 mRNA” value (IL-4 mRNA; brazilin 3 μM) was 2.136 ± 0.2671, the “Expression level of IL-4 mRNA” value (IL-4 mRNA; brazilin 10 μM) was 1.835 ± 0.2712 and the “Expression level of IL-4 mRNA” value (IL-4 mRNA; brazilin 30 μM) was 1.478 ± 0.1441. For the same compound, the “expression of mRNA of transcription factor GATA-3” value (GATA-3 mRNA; EL-4 cells, result in words) was “inhibited”, the “Expression level of GATA-3 mRNA” value (GATA-3 mRNA; brazilin 0.3 μM) was 3.960 ± 0.1234 and the “Expression level of GATA-3 mRNA” value (GATA-3 mRNA; brazilin 1 μM) was 3.036 ± 0.5622. The “Expression level of GATA-3 mRNA” value (GATA-3 mRNA; brazilin 3 μM) was 2.663 ± 0.6056, the “Expression level of GATA-3 mRNA” value (GATA-3 mRNA; brazilin 10 μM) was 1.812 ± 0.1538 and the “Expression level of GATA-3 mRNA” value (GATA-3 mRNA; brazilin 30 μM) was 1.434 ± 0.2530. The “expression of mRNA of transcription factor T-bet” value (T-bet mRNA; EL-4 cells, result in words) was “did not inhibit”, the “Expression level of T-bet mRNA” value (T-bet mRNA; brazilin 0.3 μM) was 1.073 ± 0.1762 and the “Expression level of T-bet mRNA” value (T-bet mRNA; brazilin 1 μM) was 1.036 ± 0.1666. The “Expression level of T-bet mRNA” value (T-bet mRNA; brazilin 3 μM) was 1.052 ± 0.09226, the “Expression level of T-bet mRNA” value (T-bet mRNA; brazilin 10 μM) was 1.068 ± 0.1171 and the “Expression level of T-bet mRNA” value (T-bet mRNA; brazilin 30 μM) was 1.054 ± 0.05147. The “production of IL-4 cytokine” value (IL-4; BALB/c mice, result in words) was “inhibited”, the “IL-4 concentration (pico-gram/ml)” value (IL-4; High dose (430 μg/mice)) was 23.01 ± 2.327 pico-gram/ml and the “IL-4 concentration (pico-gram/ml)” value (IL-4; Low dose (43 μg/mice)) was 36.76 ± 5.490 pico-gram/ml. For the same compound, the “production of IL-5 cytokine” value (IL-5; BALB/c mice, result in words) was “inhibited”, the “IL-5 concentration (pico-gram/ml)” value (IL-5; High dose (430 μg/mice)) was 52.10 ± 6.223 pico-gram/ml and the “IL-5 concentration (pico-gram/ml)” value (IL-5; Low dose (43 μg/mice)) was 70.65 ± 6.510 pico-gram/ml. The “effect on IFN-γ cytokine of Th1 cells” value (IFN-γ; BALB/c mice, result in words) was “no effect”, the “IFN-γ concentration (pico-gram/ml)” value (IFN-γ; High dose (430 μg/mice)) was 4.288 ± 0.868 pico-gram/ml and the “IFN-γ concentration (pico-gram/ml)” value (IFN-γ; Low dose (43 μg/mice)) was 3.598 ± 1.218 pico-gram/ml.

Source: patent US8796327B2, “Method for inhibiting production of cytokines of T helper cell type II and/or inhibiting production of chemokines using brazilin” (China Medical University, priority 2010, dated 2014)
